# Measurements published in patent US9890407B2, “Method for synthesizing cellulose in vitro” (University of Virginia Patent Foundation, priority 2013, dated 2018).
# System: Rs BcsA-B complex
# Assay: Cellulose synthase sedimentation assay (3H-labeled water-insoluble cellulose, scintillation counting)
# Assay type: biochemical, Rhodobacter sphaeroides
# Conditions: increasing nucleotide concentrations, 0.5 mM UDP-Glc, PL-reconstituted BcsA-B
# Experimental: (FIG. 4A) Enzyme-coupled cellulose synthesis assays were performed as described in FIG. 3 in the absence or presence of 0.1 mg/ml E. coli BesZ. […] Inset: Radioactive sedimentation assay performed with ND-reconstituted BcsA-B synthesizing cellulose in the absence or presence of BcsZ. […] The obtained product is quantified relative to the polymer formed in the absence of any nucleoside diphosphate.
# FIG. 9A-9B (also referred to as Example 1, Supplementary FIG. 3): Cation selectivity and pH optimum of cellulose synthase. (FIG. 9A) Cellulose synthesis reactions were performed in the presence of 20 mM of the indicated cations or in the absence of any additional divalent cations with and without addition of 20 mM EDTA. The activities are shown relative to the activity in the presence of magnesium. […] All activity assays were performed for 45 min at 37° C. with 1 μM PLs-reconstituted. Rs BcsA-B and by quantifying the accumulation of ^3H-labeled water insoluble cellulose as described.
# Following incubation at 37° C. for 45 min, the polymerization reaction was terminated by addition of 2% SDS and the water-insoluble polymer was pelleted by centrifugation at 15,000 rpm at room temperature (RT). The obtained pellet was resuspended in 20 μL 50 mM Tris pH 7.5, 0.1 M NaCl and spotted at the origin of a descending Whatman-2MM chromatography paper, which was developed in an aqueous solution of 60% ethanol. For enzymatic degradation, the pellet was resuspended in 20 μL 50 mM sodium acetate pH 4.5 and 100 mM NaCl and was digested with 0.1 mg/ml of endo-β-1,4- or endo-β-1,3 glucanase from Aspergillus niger (TCI) or Trichoderma sp. (Megazyme), respectively. Following paper chromatography, the high molecular weight polymer retained at the origin was quantified by scintillation counting.
# Following synthesis, the reactions were treated as described above.
structure (smiles),measurement,value
Nc1nc2c(ncn2[C@@H]2O[C@H](COP(=O)(O)OP(=O)(O)O)[C@@H](O)[C@H]2O)c(=O)[nH]1 [guanosine-diphosphate],inhibition of cellulose synthesis by nucleoside diphosphates,do not inhibit
Nc1ncnc2c1ncn2[C@@H]1O[C@H](COP(=O)(O)OP(=O)(O)O)[C@@H](O)[C@H]1O [adenosine-diphosphate],inhibition of cellulose synthesis by nucleoside diphosphates,do not inhibit
